# Tested on: Plasmodium berghei
# Assay: Luciferase/luciferin-expressing antifolate-resistant parasites were used to infect a culture of HepG2 cells that were pre-incubated with compounds. Infected hepatocytes emit light due to the luciferase reaction. Assay results are presented as the percent inhibition of light emission compared to control. […]
# Type: functional
# Settings: sporozoite; for IC90: read-out: LUCIFERASE INFECTION ASSAY - IC90
# [1] = read-out: LUCIFERASE INFECTION ASSAY - IC50
Structure (SMILES),IC90 [µM],also measured
c1ccc(Oc2cccc(-c3ccc4ncc(-c5ccoc5)n4n3)c2)cc1,> 10,IC50 [1]: > 10 µM
Fc1cccc(Cl)c1CSc1nnc(-c2cc(C(F)(F)F)cc(C(F)(F)F)c2)[nH]1,> 7.24,"IC50 (PBLUC_HILL_SLOPE 6.81, PBLUC_R_SQUARED 0.556, read-out: LUCIFERASE INFECTION ASSAY - IC50): > 7.24 µM"
CNC(=O)c1ccc(/C=C/C(=O)c2ccc3c4c(cccc24)CC3)cc1,9.31,"IC50 (HEPG2TOX_HILL_SLOPE 8.19, HEPG2TOX_R_SQUARED 0.612, PBLUC_HILL_SLOPE 20.8, PBLUC_R_SQUARED 0.622, read-out: LUCIFERASE INFECTION ASSAY - IC50): 8.38 µM"
CNc1snc(C)c1C(=O)N(C)Cc1ccc(F)cc1F,4.37,"IC50 (PBLUC_HILL_SLOPE 10.5, PBLUC_R_SQUARED 0.526, read-out: LUCIFERASE INFECTION ASSAY - IC50): 3.55 µM"
CCOC(=O)c1c(C)[nH]c(C(=O)C(C)N2CCN(c3ccccc3O)CC2)c1C (stereo unspecified),> 10,"IC50 (HEPG2TOX_HILL_SLOPE 6.06, HEPG2TOX_R_SQUARED 0.507, PBLUC_HILL_SLOPE 4.15, PBLUC_R_SQUARED 0.577, read-out: LUCIFERASE INFECTION ASSAY - IC50): 7.31 µM"
CCC(C)NC(=O)c1c(NC(=O)c2ccccc2Cl)nc2ccc(C)cn12 (stereo unspecified),3.78,"IC50 (HEPG2TOX_HILL_SLOPE 2.82, HEPG2TOX_R_SQUARED 0.923, PBLUC_HILL_SLOPE 8.99, PBLUC_R_SQUARED 0.855, read-out: LUCIFERASE INFECTION ASSAY - IC50): 2.96 µM"
Cc1cc(C)nc(-n2nc(C)cc2NC(=O)CN2CCc3ccccc3C2)n1,> 10,"IC50 (HEPG2TOX_HILL_SLOPE 7.28, HEPG2TOX_R_SQUARED 0.662, read-out: LUCIFERASE INFECTION ASSAY - IC50): > 10 µM"
Cn1ccnc1SCC(=O)N1N=C2/C(=C/c3ccccc3)CCCC2C1c1ccccc1 (stereo unspecified),> 10,"IC50 (PBLUC_HILL_SLOPE 2.84, PBLUC_R_SQUARED 0.326, read-out: LUCIFERASE INFECTION ASSAY - IC50): 8.34 µM"
COc1cccc(-c2nc3ccc(NC(=O)Nc4ccc5c(c4)OCO5)cn3n2)c1,> 10,"IC50 (PBLUC_HILL_SLOPE 3.78, PBLUC_R_SQUARED 0.75, read-out: LUCIFERASE INFECTION ASSAY - IC50): 7.06 µM"
CCC(C)c1ccc(NC(=O)c2ccc[nH]c2=S)cc1 (stereo unspecified),> 10,"IC50 (FFLUC_HILL_SLOPE 16.3, FFLUC_R_SQUARED 0.684, PBLUC_HILL_SLOPE 0.824, PBLUC_R_SQUARED 0.804, read-out: LUCIFERASE INFECTION ASSAY - IC50): 7.03 µM"
CS(=O)(=O)c1ccc(C(=O)Nc2ccc(S(=O)(=O)NCc3ccco3)cc2)cc1[N+](=O)[O-],> 10,"IC50 (HEPG2TOX_HILL_SLOPE 11.7, HEPG2TOX_R_SQUARED 0.595, read-out: LUCIFERASE INFECTION ASSAY - IC50): > 10 µM"
COc1ccc(S(=O)(=O)OCCSc2ccc([N+](=O)[O-])c3nonc23)cc1,> 8.02,"IC50 (FFLUC_HILL_SLOPE 1.23, FFLUC_R_SQUARED 0.562, read-out: LUCIFERASE INFECTION ASSAY - IC50): > 8.02 µM"
CCC(C)c1ccc(NC(=O)/C(C#N)=C/c2cc3c(cc2[N+](=O)[O-])OCO3)cc1 (stereo unspecified),> 10,"IC50 (HEPG2TOX_HILL_SLOPE 0.229, HEPG2TOX_R_SQUARED 0.341, PBLUC_HILL_SLOPE 0.634, PBLUC_R_SQUARED 0.752, read-out: LUCIFERASE INFECTION ASSAY - IC50): 2.46 µM"
OCc1cccc(-c2cnc3ccc(-c4ccc(F)cc4)nn23)c1,6.8,"IC50 (HEPG2TOX_HILL_SLOPE 2.34, HEPG2TOX_R_SQUARED 0.934, PBLUC_HILL_SLOPE 3.16, PBLUC_R_SQUARED 0.564, read-out: LUCIFERASE INFECTION ASSAY - IC50): 3.39 µM"
CCc1cccc2c(/C=C3\C(=O)Nc4ccccc43)c[nH]c12,> 10,IC50 [1]: 6.04 µM
CN(C)c1ccc(Nc2cc(-c3cccc4ccccc34)ncn2)cc1,6.64,"IC50 (HEPG2TOX_HILL_SLOPE 1.74, HEPG2TOX_R_SQUARED 0.777, PBLUC_HILL_SLOPE 1.75, PBLUC_R_SQUARED 0.668, read-out: LUCIFERASE INFECTION ASSAY - IC50): 1.9 µM"
CC(=O)Nc1ccc(Sc2ccnc3cc(Cl)ccc23)cc1,3.98,"IC50 (FFLUC_HILL_SLOPE 2.92, FFLUC_R_SQUARED 0.4, PBLUC_HILL_SLOPE 11.7, PBLUC_R_SQUARED 0.574, read-out: LUCIFERASE INFECTION ASSAY - IC50): 3.29 µM"
CC(C)CNc1nn2c(-c3cccc(C(=O)N(C)C)c3)cnc2s1,> 9.61,"IC50 (FFLUC_HILL_SLOPE 13.4, FFLUC_R_SQUARED 0.472, read-out: LUCIFERASE INFECTION ASSAY - IC50): > 9.61 µM"
O=C(Nc1nc2ccc(OC(F)(F)F)cc2s1)c1cnccn1,3.41,"IC50 (FFLUC_HILL_SLOPE 1.04, FFLUC_R_SQUARED 0.266, PBLUC_HILL_SLOPE 101, PBLUC_R_SQUARED 0.2, read-out: LUCIFERASE INFECTION ASSAY - IC50): 3.33 µM"

Structure (SMILES),IC90 [µM],also measured
c1ccc(CCNCc2cn(-c3ccccc3)nc2-c2cccs2)cc1,> 10,"IC50 (PBLUC_HILL_SLOPE 3.19, PBLUC_R_SQUARED 0.352, read-out: LUCIFERASE INFECTION ASSAY - IC50): 9.18 µM"
COc1ccc(C(CNc2nc(-c3cccnc3)nc3ccccc23)c2c[nH]c3ccccc23)cc1 (stereo unspecified),> 10,"IC50 (PBLUC_HILL_SLOPE 8.92, PBLUC_R_SQUARED 0.072, read-out: LUCIFERASE INFECTION ASSAY - IC50): > 10 µM"
Cc1ccc(-n2ncc(C(=O)OCc3nc(N)nc(N(C)C)n3)c2C(C)C)cc1,> 10,"IC50 (PBLUC_HILL_SLOPE 2.99, PBLUC_R_SQUARED 0.678, read-out: LUCIFERASE INFECTION ASSAY - IC50): 6.36 µM"
CN1CCN(c2ccc(-c3cn4c(-c5cccc(Cl)c5)cnc4cn3)cn2)CC1,> 8.15,"IC50 (PBLUC_HILL_SLOPE 1.98, PBLUC_R_SQUARED 0.725, read-out: LUCIFERASE INFECTION ASSAY - IC50): 5.39 µM"
Cn1/c(=N/N=C2\C(=O)N(Cc3ccccc3)c3ccccc32)sc2ccccc21,> 10,IC50 [1]: > 10 µM
N#Cc1ccc(-c2cnc3cnc(/C=C/c4ccccc4)cn23)cc1,1.49,"IC50 (PBLUC_HILL_SLOPE 4.44, PBLUC_R_SQUARED 0.805, read-out: LUCIFERASE INFECTION ASSAY - IC50): 0.909 µM"
O=C(Nc1nc2ccc([N+](=O)[O-])cc2s1)c1cccc(Cl)c1,> 10,"IC50 (HEPG2TOX_HILL_SLOPE 0.963, HEPG2TOX_R_SQUARED 0.986, PBLUC_HILL_SLOPE 0.779, PBLUC_R_SQUARED 0.754, read-out: LUCIFERASE INFECTION ASSAY - IC50): 0.754 µM"
CCn1c(NC(=O)Cc2csc(-n3c(C)ccc3C)n2)nc2ccccc21,> 10,"IC50 (HEPG2TOX_HILL_SLOPE 6.15, HEPG2TOX_R_SQUARED 0.156, PBLUC_HILL_SLOPE 14.1, PBLUC_R_SQUARED 0.172, read-out: LUCIFERASE INFECTION ASSAY - IC50): 8.84 µM"
COC(=O)c1ccccc1N(C)S(=O)(=O)c1ccc(Cl)cc1F,> 10,IC50 [1]: > 10 µM
N#CC(C#N)=C1C=C(c2ccc(O)cc2)Oc2ccccc21,> 10,"IC50 (FFLUC_HILL_SLOPE 1.23, FFLUC_R_SQUARED 0.408, read-out: LUCIFERASE INFECTION ASSAY - IC50): > 10 µM"
CC(C)(C)c1ccc(NC(=O)c2ccc(CCNS(C)(=O)=O)cc2)cc1,3.46,"IC50 (HEPG2TOX_HILL_SLOPE 2.32, HEPG2TOX_R_SQUARED 0.971, PBLUC_HILL_SLOPE 55.7, PBLUC_R_SQUARED 0.572, read-out: LUCIFERASE INFECTION ASSAY - IC50): 3.32 µM"
N#C/C(=N\Nc1cc(C(F)(F)F)cc(C(F)(F)F)c1)S(=O)(=O)c1cccs1,2,"IC50 (FFLUC_HILL_SLOPE 43.6, FFLUC_R_SQUARED 0.536, HEPG2TOX_HILL_SLOPE 2.45, HEPG2TOX_R_SQUARED 0.984, PBLUC_HILL_SLOPE 3.51, PBLUC_R_SQUARED 0.744, read-out: LUCIFERASE INFECTION ASSAY - IC50): 1.07 µM"
O=C1OC(c2ccccc2)Cc2cc(C(=O)N3CCC(C(=O)Nc4ccccc4)CC3)ccc21 (stereo unspecified),> 10,"IC50 (HEPG2TOX_HILL_SLOPE 2.71, HEPG2TOX_R_SQUARED 0.817, PBLUC_HILL_SLOPE 3.44, PBLUC_R_SQUARED 0.218, read-out: LUCIFERASE INFECTION ASSAY - IC50): 6.51 µM"
CCOC(=O)c1cc(Sc2ccccc2NC(=O)Nc2ccc(C)cc2)cc(C(=O)OCC)n1,> 6.88,IC50 [1]: > 6.88 µM
O=[N+]([O-])c1ccc(SCCOS(=O)(=O)c2cccc(C(F)(F)F)c2)c2nonc12,> 7.34,IC50 [1]: > 7.34 µM
Cc1c(C(=O)N2CCCCC2)sc2nc(-c3ccc(Cl)cc3)nn12,8.36,"IC50 (FFLUC_HILL_SLOPE 28.1, FFLUC_R_SQUARED 0.294, PBLUC_HILL_SLOPE 1.44, PBLUC_R_SQUARED 0.531, read-out: LUCIFERASE INFECTION ASSAY - IC50): 1.82 µM"
CC(Sc1nncs1)C(=O)Nc1cc([N+](=O)[O-])ccc1Cl (stereo unspecified),> 10,IC50 [1]: > 10 µM
Cc1ccc(/C=C/C(=O)NC2=NCCS2)c(Br)c1,> 10,"IC50 (PBLUC_HILL_SLOPE 0.976, PBLUC_R_SQUARED 0.447, read-out: LUCIFERASE INFECTION ASSAY - IC50): 3.48 µM"
C/C(=N\NC(N)=S)c1ccc(CC(C)C)cc1,> 13.2,"IC50 (HEPG2TOX_HILL_SLOPE 2.45, HEPG2TOX_R_SQUARED 0.895, PBLUC_HILL_SLOPE 1.49, PBLUC_R_SQUARED 0.577, read-out: LUCIFERASE INFECTION ASSAY - IC50): 4.2 µM"
